Structure (SMILES)	logP
COc1cc(Cl)cc(Cl)c1Cl	4.05
COc1ccc(Br)cc1	3.15
COc1c(Br)cc(Br)c(Cl)c1Br	5.29
COc1ccc(Br)c(Cl)c1Cl	4.47
COc1c(Br)cccc1Br	3.42
COc1c(Br)c(Cl)c(Cl)c(Cl)c1Br	5.55
COc1c(Cl)cc(Cl)cc1Br	4
COc1cc(Cl)c(Cl)c(Cl)c1Br	4.97
COc1cc(Cl)c(Br)c(Cl)c1	4.39
COc1cccc(Cl)c1Cl	3.3
COc1cc(Cl)c(Br)c(Cl)c1Br	5.29
COc1ccc(Cl)cc1Cl	3.46
COc1cc(Cl)c(Cl)c(Cl)c1Cl	4.57
COc1c(Cl)c(Cl)c(Br)c(Cl)c1Cl	5.26
COc1c(Cl)cccc1Cl	3.19
COc1ccc(Br)cc1Br	3.75
COc1c(Cl)cc(Br)c(Cl)c1Cl	4.66
COc1c(Br)ccc(Cl)c1Cl	4.47
COc1cc(Cl)ccc1Cl	3.27

Structure (SMILES)	logP
COc1ccc(Cl)c(Cl)c1	3.55
COc1ccccc1Cl	2.72
COc1c(Cl)c(Cl)cc(Br)c1Br	5.29
COc1c(Cl)cccc1Br	3.44
COc1c(Cl)c(Cl)cc(Br)c1Cl	4.66
COc1c(Br)c(Br)c(Br)c(Br)c1Br	5.43
COc1ccccc1Br	2.87
COc1cc(Cl)cc(Cl)c1Br	4.39
COc1cc(Cl)c(Cl)cc1Cl	3.95
COc1c(Br)cc(Br)c(Cl)c1Cl	4.97
COc1c(Cl)c(Cl)c(Cl)c(Cl)c1Cl	5.16
COc1cccc(Br)c1	3.23
COc1c(Cl)cc(Br)cc1Cl	4.02
COc1c(Br)cc(Cl)cc1Br	4.33
COc1c(Cl)ccc(Cl)c1Cl	3.76
COc1cc(Br)c(Cl)cc1Cl	4.47
COc1ccc(Cl)cc1Br	3.59
COc1c(Br)cc(Cl)c(Cl)c1Cl	4.64
COc1ccc(Br)cc1Cl	3.77
